# Tested on: 186277-243-T-J2-PDC complex spheroid viability
# Test: Anticancer human tumor 186277-243-T-J2-PDC patient-derived colon adenocarcinoma cell line growth inhibition [GQUAD]
# Details: for IC50: curve of first compound; for viability, T/C: stronger effect = lower value
# Outline: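 Viability of tumor cells grown as complex spheroids with endothelial and stromal cells, exposed to drug combinations. Top concentration at or near clinical Cmax (else 10 microM), diluted in half-log increments.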
# [1] = second compound 0.0316 µM, first compound 0.0316 µM
# [2] = second compound 0.0316 µM, first compound 0.316 µM
# [3] = second compound 0.1 µM, first compound 0.0316 µM
# [4] = second compound 0.1 µM, first compound 0.316 µM
# [5] = second compound 0.316 µM, first compound 0.0316 µM
# [6] = second compound 0.316 µM, first compound 0.316 µM
# [7] = second compound 1 µM, first compound 0.0316 µM
# [8] = second compound 1 µM, first compound 0.316 µM
# [9] = second compound 3.16 µM, first compound 0.0316 µM
# [10] = second compound 3.16 µM, first compound 0.316 µM
# [11] = second compound 10 µM, first compound 0.0316 µM
# [12] = second compound 10 µM, first compound 0.316 µM
# [13] = second compound 0.0316 µM, first compound 0.000999 µM
# [14] = second compound 0.0316 µM, first compound 0.00316 µM
# [15] = second compound 0.0316 µM, first compound 0.00999 µM
# [16] = second compound 0.0316 µM, first compound 0.0999 µM
# [17] = second compound 0.1 µM, first compound 0.000999 µM
# [18] = second compound 0.1 µM, first compound 0.00316 µM
# [19] = second compound 0.1 µM, first compound 0.00999 µM
# [20] = second compound 0.1 µM, first compound 0.0999 µM
# [21] = second compound 0.316 µM, first compound 0.000999 µM
# [22] = second compound 0.316 µM, first compound 0.00316 µM
# [23] = second compound 0.316 µM, first compound 0.00999 µM
# [24] = second compound 0.316 µM, first compound 0.0999 µM
# [25] = second compound 1 µM, first compound 0.000999 µM
# [26] = second compound 1 µM, first compound 0.00316 µM
# [27] = second compound 1 µM, first compound 0.00999 µM
# [28] = second compound 1 µM, first compound 0.0999 µM
# [29] = second compound 3.16 µM, first compound 0.000999 µM
# [30] = second compound 3.16 µM, first compound 0.00316 µM
# [31] = second compound 3.16 µM, first compound 0.00999 µM
# [32] = second compound 3.16 µM, first compound 0.0999 µM
# [33] = second compound 10 µM, first compound 0.000999 µM
# [34] = second compound 10 µM, first compound 0.00316 µM
# [35] = second compound 10 µM, first compound 0.00999 µM
# [36] = second compound 10 µM, first compound 0.0999 µM
# 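Wherever viability, T/C is given: 100% = DMSO vehicle control viability.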
structure (smiles),measurement,setting,value
CC(C)n1c(=O)n(C)c2cnc3cc(F)c(-c4ccc(OCCCN5CCCCC5)nc4)cc3c21 + Cc1[nH]c2ccc(F)cc2c1-c1nc2c3cccnc3c3ncccc3c2[nH]1,IC50,second compound 0.0316 µM,> 10000 nM
same,IC50,second compound 0.1 µM,> 10000 nM
same,IC50,second compound 0.316 µM,> 10000 nM
same,IC50,second compound 1 µM,> 10000 nM
same,IC50,second compound 3.16 µM,> 10000 nM
same,IC50,second compound 10 µM,> 10000 nM
same,"viability, T/C",[1],102%
same,"viability, T/C","second compound 0.0316 µM, first compound 0.1 µM",94.9%
same,"viability, T/C",[2],106%
same,"viability, T/C","second compound 0.0316 µM, first compound 1 µM",95.5%
same,"viability, T/C","second compound 0.0316 µM, first compound 3.16 µM",101%
same,"viability, T/C","second compound 0.0316 µM, first compound 10 µM",83.6%
same,"viability, T/C",[3],108%
same,"viability, T/C","second compound 0.1 µM, first compound 0.1 µM",91.4%
same,"viability, T/C",[4],99.6%
same,"viability, T/C","second compound 0.1 µM, first compound 1 µM",104%
same,"viability, T/C","second compound 0.1 µM, first compound 3.16 µM",93.6%
same,"viability, T/C","second compound 0.1 µM, first compound 10 µM",89.2%
same,"viability, T/C",[5],83.3%
same,"viability, T/C","second compound 0.316 µM, first compound 0.1 µM",105%
same,"viability, T/C",[6],101%
same,"viability, T/C","second compound 0.316 µM, first compound 1 µM",89.5%
same,"viability, T/C","second compound 0.316 µM, first compound 3.16 µM",113%
same,"viability, T/C","second compound 0.316 µM, first compound 10 µM",98.5%
same,"viability, T/C",[7],87.9%
same,"viability, T/C","second compound 1 µM, first compound 0.1 µM",89.8%
same,"viability, T/C",[8],104%
same,"viability, T/C","second compound 1 µM, first compound 1 µM",102%
same,"viability, T/C","second compound 1 µM, first compound 3.16 µM",100%
same,"viability, T/C","second compound 1 µM, first compound 10 µM",97.7%
same,"viability, T/C",[9],91.7%
same,"viability, T/C","second compound 3.16 µM, first compound 0.1 µM",90.2%
same,"viability, T/C",[10],105%
same,"viability, T/C","second compound 3.16 µM, first compound 1 µM",103%
same,"viability, T/C","second compound 3.16 µM, first compound 3.16 µM",103%
same,"viability, T/C","second compound 3.16 µM, first compound 10 µM",96.3%
same,"viability, T/C",[11],96%
same,"viability, T/C","second compound 10 µM, first compound 0.1 µM",94.7%
same,"viability, T/C",[12],104%
same,"viability, T/C","second compound 10 µM, first compound 1 µM",104%
same,"viability, T/C","second compound 10 µM, first compound 3.16 µM",89%
same,"viability, T/C","second compound 10 µM, first compound 10 µM",93.3%
CC[C@@]1(O)C(=O)OCc2c1cc1n(c2=O)Cc2cc3c(CN(C)C)c(O)ccc3nc2-1 + Cc1[nH]c2ccc(F)cc2c1-c1nc2c3cccnc3c3ncccc3c2[nH]1,IC50,second compound 0.0316 µM,> 316 nM
same,IC50,second compound 0.1 µM,> 316 nM
same,IC50,second compound 0.316 µM,> 316 nM
same,IC50,second compound 1 µM,> 316 nM
same,IC50,second compound 3.16 µM,> 316 nM
same,IC50,second compound 10 µM,> 316 nM
same,"viability, T/C",[13],97%
same,"viability, T/C",[14],91.6%
same,"viability, T/C",[15],88.2%
same,"viability, T/C",[1],93.9%
same,"viability, T/C",[16],68.2%
same,"viability, T/C",[2],51.6%
same,"viability, T/C",[17],111%
same,"viability, T/C",[18],106%
same,"viability, T/C",[19],94.2%
same,"viability, T/C",[3],93.7%
same,"viability, T/C",[20],77.9%
same,"viability, T/C",[4],59.6%
same,"viability, T/C",[21],96.3%
same,"viability, T/C",[22],95%
same,"viability, T/C",[23],92.8%
same,"viability, T/C",[5],89.8%
same,"viability, T/C",[24],78%
same,"viability, T/C",[6],60.7%
same,"viability, T/C",[25],95.3%
same,"viability, T/C",[26],101%
same,"viability, T/C",[27],94.8%
same,"viability, T/C",[7],103%
same,"viability, T/C",[28],77.7%
same,"viability, T/C",[8],55.7%
same,"viability, T/C",[29],118%
same,"viability, T/C",[30],94.1%
same,"viability, T/C",[31],109%
same,"viability, T/C",[9],92.9%
same,"viability, T/C",[32],67.4%
same,"viability, T/C",[10],57.4%
same,"viability, T/C",[33],87.9%
same,"viability, T/C",[34],99.9%
same,"viability, T/C",[35],86.8%
same,"viability, T/C",[11],87.3%
same,"viability, T/C",[36],79.8%
same,"viability, T/C",[12],56.1%
CCc1c2c(nc3ccc(O)cc13)-c1cc3c(c(=O)n1C2)COC(=O)[C@]3(O)CC + Cc1[nH]c2ccc(F)cc2c1-c1nc2c3cccnc3c3ncccc3c2[nH]1,IC50,second compound 0.0316 µM,13 nM
same,IC50,second compound 0.1 µM,13.1 nM
same,IC50,second compound 0.316 µM,10.3 nM
same,IC50,second compound 1 µM,11.3 nM
same,IC50,second compound 3.16 µM,7.39 nM
same,IC50,second compound 10 µM,15.7 nM
same,"viability, T/C",[13],99.6%
same,"viability, T/C",[14],71.6%
same,"viability, T/C",[15],62.5%
same,"viability, T/C",[1],29.9%
same,"viability, T/C",[16],25.1%
same,"viability, T/C",[2],21.1%
same,"viability, T/C",[17],115%
same,"viability, T/C",[18],94.5%
same,"viability, T/C",[19],52.4%
same,"viability, T/C",[3],36.5%
same,"viability, T/C",[20],21.4%
same,"viability, T/C",[4],22%
same,"viability, T/C",[21],105%
same,"viability, T/C",[22],70.1%
same,"viability, T/C",[23],54.2%
same,"viability, T/C",[5],33.9%
same,"viability, T/C",[24],23.7%
same,"viability, T/C",[6],19.8%
same,"viability, T/C",[25],91.5%
same,"viability, T/C",[26],73.2%
same,"viability, T/C",[27],49.9%
same,"viability, T/C",[7],37.4%
same,"viability, T/C",[28],25%
same,"viability, T/C",[8],20.7%
same,"viability, T/C",[29],85.9%
same,"viability, T/C",[30],63.5%
same,"viability, T/C",[31],45.6%
same,"viability, T/C",[9],31%
same,"viability, T/C",[32],26.4%
same,"viability, T/C",[10],18.7%
same,"viability, T/C",[33],77.2%
same,"viability, T/C",[34],72.2%
same,"viability, T/C",[35],58.8%
same,"viability, T/C",[11],36.8%
same,"viability, T/C",[36],24.1%
same,"viability, T/C",[12],23.3%

# Source: PubChem BioAssay AID2060512 (Molecular Pharmacology Branch, DTP, NCI, 2025)
